In patent publication US20130267551A1, “SUBSTITUTED HYDROGENATED THIENO-PYRROLO[3,2-C]PYRIDINE, LIGANDS, A PHARMACEUTICAL COMPOSITION AND A METHOD FOR USING THE ABOVE” (ALLA CHEM, LLC, priority 2010, published 2013):
Counter-ions that a name gives are not always drawn.

Legend:
Adrenergic α1A = experiment: competitive radioligand binding, Adrenergic α1A; conditions: compound concentration of 1 μM
Experimental: (§1) Profiles of pharmacological activity of thieno-pyrrolo[3,2-c]pyridines of the general formula 1. Biological activity test of compounds of the general formula 1 was carried out in the setting of competitive radioligand binding [I. Okun, S. Tkachenko, A. Khvat, et al., Current Alzheimer Research, 7(2), 97-112 (2010)], using a wide range of therapeutic targets including G-protein coupled receptors (GPCR), ion channels and neuromediator transporters. The tested activity was determined by quantitative measurement of radio-labelled ligand displacement by tested compounds of the general formula 1 at their concentration of 1 μM.

Adrenergic α1B = experiment: competitive radioligand binding, Adrenergic α1B; conditions: compound concentration of 1 μM
Experimental: as §1

Adrenergic α1D = target: T1, Adrenergic α1D (Homo sapiens, UniProt P25100); experiment: competitive radioligand binding, Adrenergic α1D; conditions: compound concentration of 1 μM
T1 sequence (P25100 1-572): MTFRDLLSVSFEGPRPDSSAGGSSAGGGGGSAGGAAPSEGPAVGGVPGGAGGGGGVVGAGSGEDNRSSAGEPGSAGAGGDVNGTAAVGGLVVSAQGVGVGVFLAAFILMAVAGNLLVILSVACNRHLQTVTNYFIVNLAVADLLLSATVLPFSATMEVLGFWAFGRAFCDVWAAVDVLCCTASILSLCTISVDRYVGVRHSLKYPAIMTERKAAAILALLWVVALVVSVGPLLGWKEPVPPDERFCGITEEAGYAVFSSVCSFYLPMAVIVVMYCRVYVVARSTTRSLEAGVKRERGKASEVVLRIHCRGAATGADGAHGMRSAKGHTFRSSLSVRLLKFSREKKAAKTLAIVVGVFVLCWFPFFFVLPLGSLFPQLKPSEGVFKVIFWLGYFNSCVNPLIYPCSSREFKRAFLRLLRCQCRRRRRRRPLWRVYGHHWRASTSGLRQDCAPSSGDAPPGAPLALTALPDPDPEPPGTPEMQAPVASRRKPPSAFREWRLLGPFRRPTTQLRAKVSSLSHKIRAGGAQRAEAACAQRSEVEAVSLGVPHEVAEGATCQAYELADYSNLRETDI
Experimental: as §1

Adrenergic α2A = target: T2, Adrenergic α2A (Homo sapiens, UniProt P08913); experiment: competitive radioligand binding, Adrenergic α2A; conditions: compound concentration of 1 μM
T2 sequence (P08913 1-465): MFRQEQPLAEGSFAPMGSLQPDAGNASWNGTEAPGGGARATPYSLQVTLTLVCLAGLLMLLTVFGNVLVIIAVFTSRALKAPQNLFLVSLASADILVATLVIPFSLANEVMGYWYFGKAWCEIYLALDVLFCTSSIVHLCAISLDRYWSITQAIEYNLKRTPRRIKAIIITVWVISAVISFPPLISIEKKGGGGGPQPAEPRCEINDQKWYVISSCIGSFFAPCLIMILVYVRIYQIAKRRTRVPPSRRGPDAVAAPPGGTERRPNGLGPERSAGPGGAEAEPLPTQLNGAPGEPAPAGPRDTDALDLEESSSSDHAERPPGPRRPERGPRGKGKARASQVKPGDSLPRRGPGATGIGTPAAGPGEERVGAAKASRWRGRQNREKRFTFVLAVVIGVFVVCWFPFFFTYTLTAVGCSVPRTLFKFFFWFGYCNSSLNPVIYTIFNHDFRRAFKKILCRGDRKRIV
Experimental: as §1

Dopaminergic D1 = Dopaminergic D1 (Homo sapiens, UniProt P21728); experiment: competitive radioligand binding, Dopaminergic D1; conditions: compound concentration of 1 μM
Experimental: as §1

Dopaminergic D2L = Dopaminergic D2L (Homo sapiens, UniProt P14416); experiment: competitive radioligand binding, Dopaminergic D2L; conditions: compound concentration of 1 μM
Experimental: as §1

Dopaminergic D2S = Dopaminergic D2S (Homo sapiens, UniProt P14416); experiment: competitive radioligand binding, Dopaminergic D2S; conditions: compound concentration of 1 μM
Experimental: as §1

Dopaminergic D3 = Dopaminergic D3 (Homo sapiens, UniProt P35462); experiment: competitive radioligand binding, Dopaminergic D3; conditions: compound concentration of 1 μM
Experimental: as §1

Dopaminergic D4.2 = target: T3, Dopaminergic D4.2 (Homo sapiens, UniProt P21917, DEL265-296); experiment: competitive radioligand binding, Dopaminergic D4.2; conditions: compound concentration of 1 μM
T3 sequence (P21917 with tags, fused parts or gaps DEL265-296): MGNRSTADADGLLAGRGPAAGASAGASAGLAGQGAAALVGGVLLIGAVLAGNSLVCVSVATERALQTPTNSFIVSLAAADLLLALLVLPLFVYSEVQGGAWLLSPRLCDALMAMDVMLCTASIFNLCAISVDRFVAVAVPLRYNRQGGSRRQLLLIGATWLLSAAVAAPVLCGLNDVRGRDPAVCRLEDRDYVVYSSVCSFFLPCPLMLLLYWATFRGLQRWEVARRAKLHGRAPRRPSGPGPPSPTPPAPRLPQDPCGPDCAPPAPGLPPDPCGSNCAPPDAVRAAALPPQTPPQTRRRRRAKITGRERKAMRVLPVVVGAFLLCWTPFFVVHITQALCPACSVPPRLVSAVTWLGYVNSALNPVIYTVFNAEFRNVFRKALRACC
Experimental: as §1

Histaminergic H1 = Histaminergic H1 (Homo sapiens, UniProt P35367); experiment: competitive radioligand binding, Histaminergic H1; conditions: compound concentration of 1 μM
Experimental: as §1

Histaminergic H2 = Histaminergic H2 (Homo sapiens, UniProt P25021); experiment: competitive radioligand binding, Histaminergic H2; conditions: compound concentration of 1 μM
Experimental: as §1

Histaminergic H3 = Histaminergic H3 (Homo sapiens, UniProt Q9Y5N1); experiment: competitive radioligand binding, Histaminergic H3; conditions: compound concentration of 1 μM; in % (unit assumed)
Experimental: as §1

Serotoninergic 5-HT1A = target: T4, Serotoninergic 5-HT1A (Homo sapiens, UniProt P08908); experiment: competitive radioligand binding, Serotoninergic 5-HT1A; conditions: compound concentration of 1 μM
T4 sequence (P08908 1-422): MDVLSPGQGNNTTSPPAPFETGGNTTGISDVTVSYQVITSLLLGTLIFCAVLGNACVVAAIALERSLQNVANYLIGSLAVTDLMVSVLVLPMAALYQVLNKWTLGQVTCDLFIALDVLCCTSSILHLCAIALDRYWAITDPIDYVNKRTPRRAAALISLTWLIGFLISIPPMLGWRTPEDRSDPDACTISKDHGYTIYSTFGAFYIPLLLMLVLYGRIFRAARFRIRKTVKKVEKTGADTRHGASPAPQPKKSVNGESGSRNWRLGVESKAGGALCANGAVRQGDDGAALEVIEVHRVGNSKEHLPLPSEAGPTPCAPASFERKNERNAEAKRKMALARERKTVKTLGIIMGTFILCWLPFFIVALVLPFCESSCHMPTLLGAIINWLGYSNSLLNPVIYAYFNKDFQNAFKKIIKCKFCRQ
Experimental: as §1

Serotoninergic 5-HT1B = experiment: competitive radioligand binding, Serotoninergic 5-HT1B; conditions: compound concentration of 1 μM
Experimental: as §1

Serotoninergic 5-HT2A = Serotoninergic 5-HT2A (Homo sapiens, UniProt P28223); experiment: competitive radioligand binding, Serotoninergic 5-HT2A; conditions: compound concentration of 1 μM
Experimental: as §1

Serotoninergic 5-HT2B = Serotoninergic 5-HT2B (Homo sapiens, UniProt P41595); experiment: competitive radioligand binding, Serotoninergic 5-HT2B; conditions: compound concentration of 1 μM
Experimental: as §1

Serotoninergic 5-HT2C = target: T5, Serotoninergic 5-HT2C (Homo sapiens, UniProt P28335); experiment: competitive radioligand binding, Serotoninergic 5-HT2C; conditions: compound concentration of 1 μM
T5 sequence (P28335 33-458): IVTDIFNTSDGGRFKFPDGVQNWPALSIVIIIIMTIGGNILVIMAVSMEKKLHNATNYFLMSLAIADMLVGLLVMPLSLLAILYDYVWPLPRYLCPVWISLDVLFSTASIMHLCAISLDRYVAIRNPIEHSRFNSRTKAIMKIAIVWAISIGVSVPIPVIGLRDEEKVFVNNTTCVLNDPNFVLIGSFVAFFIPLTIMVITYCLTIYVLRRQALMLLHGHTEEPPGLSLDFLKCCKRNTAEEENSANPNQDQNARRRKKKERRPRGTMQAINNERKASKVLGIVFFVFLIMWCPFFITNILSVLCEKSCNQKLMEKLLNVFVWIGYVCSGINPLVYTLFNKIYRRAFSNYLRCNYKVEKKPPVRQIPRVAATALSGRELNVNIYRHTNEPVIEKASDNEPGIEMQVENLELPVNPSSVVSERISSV
Experimental: as §1

Serotoninergic 5-HT6 = Serotoninergic 5-HT6 (Homo sapiens, UniProt P50406); experiment: competitive radioligand binding, Serotoninergic 5-HT6; conditions: compound concentration of 1 μM
Experimental: as §1

Serotoninergic 5-HT7 = Serotoninergic 5-HT7 (Homo sapiens, UniProt P34969); experiment: competitive radioligand binding, Serotoninergic 5-HT7; conditions: compound concentration of 1 μM
Experimental: as §1

[1] = tested on: Therapeutic targets (Adrenergic, Dopaminergic, Histaminergic, Serotoninergic); experiment: Profiles of pharmacological activity in competitive radioligand binding (whole panel); conditions: 1 μM, grades not defined
Experimental: as §1

Dopaminergic D1, sequence (P21728 whole entry): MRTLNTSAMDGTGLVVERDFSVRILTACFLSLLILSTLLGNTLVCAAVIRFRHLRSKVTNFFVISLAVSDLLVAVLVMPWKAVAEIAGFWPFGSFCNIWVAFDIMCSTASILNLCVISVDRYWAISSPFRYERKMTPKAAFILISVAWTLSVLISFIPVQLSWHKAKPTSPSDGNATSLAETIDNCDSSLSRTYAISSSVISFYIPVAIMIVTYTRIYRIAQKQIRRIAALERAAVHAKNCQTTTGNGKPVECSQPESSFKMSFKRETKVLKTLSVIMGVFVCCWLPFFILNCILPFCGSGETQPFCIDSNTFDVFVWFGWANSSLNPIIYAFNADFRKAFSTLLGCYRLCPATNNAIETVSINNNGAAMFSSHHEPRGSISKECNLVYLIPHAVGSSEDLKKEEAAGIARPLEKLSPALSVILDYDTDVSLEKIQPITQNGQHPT
Dopaminergic D3, sequence (P35462 whole entry): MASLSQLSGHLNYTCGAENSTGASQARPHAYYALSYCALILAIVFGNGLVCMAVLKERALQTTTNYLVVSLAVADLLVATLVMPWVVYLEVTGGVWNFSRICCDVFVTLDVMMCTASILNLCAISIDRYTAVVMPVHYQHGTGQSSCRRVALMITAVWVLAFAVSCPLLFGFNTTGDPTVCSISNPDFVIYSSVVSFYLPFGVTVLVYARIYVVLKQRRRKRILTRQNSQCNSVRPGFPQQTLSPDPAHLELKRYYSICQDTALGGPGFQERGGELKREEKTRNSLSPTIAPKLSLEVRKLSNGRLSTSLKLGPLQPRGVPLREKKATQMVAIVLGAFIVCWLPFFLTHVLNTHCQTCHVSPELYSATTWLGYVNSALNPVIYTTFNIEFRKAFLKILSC
Serotoninergic 5-HT2B, sequence (P41595 whole entry): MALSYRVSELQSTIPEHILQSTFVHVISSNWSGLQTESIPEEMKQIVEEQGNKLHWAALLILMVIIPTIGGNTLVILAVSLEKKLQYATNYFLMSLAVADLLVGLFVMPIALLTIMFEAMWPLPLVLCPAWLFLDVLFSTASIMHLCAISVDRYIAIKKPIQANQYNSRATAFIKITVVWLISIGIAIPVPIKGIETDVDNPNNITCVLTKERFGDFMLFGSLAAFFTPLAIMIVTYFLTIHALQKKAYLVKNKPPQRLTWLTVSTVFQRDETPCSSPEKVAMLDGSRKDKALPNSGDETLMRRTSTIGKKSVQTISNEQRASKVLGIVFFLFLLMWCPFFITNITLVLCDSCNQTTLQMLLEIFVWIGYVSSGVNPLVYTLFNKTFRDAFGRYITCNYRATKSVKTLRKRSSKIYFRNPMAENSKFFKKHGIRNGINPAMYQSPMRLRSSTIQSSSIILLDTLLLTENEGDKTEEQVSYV
Dopaminergic D2S, sequence (P14416 1-414 isoform P14416-2): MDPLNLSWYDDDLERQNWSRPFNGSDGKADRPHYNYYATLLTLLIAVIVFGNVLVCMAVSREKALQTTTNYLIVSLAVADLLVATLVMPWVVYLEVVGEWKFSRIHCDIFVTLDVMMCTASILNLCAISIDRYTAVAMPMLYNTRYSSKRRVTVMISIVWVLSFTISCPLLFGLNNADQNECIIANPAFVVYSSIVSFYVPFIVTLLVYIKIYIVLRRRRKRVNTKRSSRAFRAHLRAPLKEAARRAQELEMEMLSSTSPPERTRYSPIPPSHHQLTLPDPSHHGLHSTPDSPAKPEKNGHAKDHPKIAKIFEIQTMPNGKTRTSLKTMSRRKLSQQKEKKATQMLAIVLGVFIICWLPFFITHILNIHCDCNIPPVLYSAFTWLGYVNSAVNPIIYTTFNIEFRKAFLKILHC
Serotoninergic 5-HT6, sequence (P50406 whole entry): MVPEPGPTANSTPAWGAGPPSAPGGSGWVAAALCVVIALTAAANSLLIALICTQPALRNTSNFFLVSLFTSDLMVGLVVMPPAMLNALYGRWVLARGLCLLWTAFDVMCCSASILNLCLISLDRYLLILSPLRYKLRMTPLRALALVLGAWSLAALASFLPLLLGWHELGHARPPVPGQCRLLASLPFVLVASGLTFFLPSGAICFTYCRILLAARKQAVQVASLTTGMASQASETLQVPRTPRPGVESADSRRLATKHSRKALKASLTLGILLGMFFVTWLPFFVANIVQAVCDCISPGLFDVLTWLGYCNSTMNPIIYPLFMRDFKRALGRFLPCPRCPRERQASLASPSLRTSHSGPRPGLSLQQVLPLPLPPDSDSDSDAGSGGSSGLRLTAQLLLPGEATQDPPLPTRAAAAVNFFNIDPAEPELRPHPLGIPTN
Serotoninergic 5-HT7, sequence (P34969 whole entry): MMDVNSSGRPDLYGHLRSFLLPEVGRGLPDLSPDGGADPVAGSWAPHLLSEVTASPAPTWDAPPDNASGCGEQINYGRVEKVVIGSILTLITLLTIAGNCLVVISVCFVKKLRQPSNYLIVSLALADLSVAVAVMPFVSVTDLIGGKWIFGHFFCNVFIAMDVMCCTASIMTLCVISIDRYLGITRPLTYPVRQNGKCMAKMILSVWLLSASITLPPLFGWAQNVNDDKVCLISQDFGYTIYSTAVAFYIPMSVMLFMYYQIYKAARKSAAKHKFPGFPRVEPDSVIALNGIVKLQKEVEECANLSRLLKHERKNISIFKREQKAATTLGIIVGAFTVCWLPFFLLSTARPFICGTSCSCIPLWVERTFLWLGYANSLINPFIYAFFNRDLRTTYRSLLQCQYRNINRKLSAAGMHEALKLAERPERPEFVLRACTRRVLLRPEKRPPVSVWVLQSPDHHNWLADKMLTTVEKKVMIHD
Dopaminergic D2L, sequence (P14416 whole entry): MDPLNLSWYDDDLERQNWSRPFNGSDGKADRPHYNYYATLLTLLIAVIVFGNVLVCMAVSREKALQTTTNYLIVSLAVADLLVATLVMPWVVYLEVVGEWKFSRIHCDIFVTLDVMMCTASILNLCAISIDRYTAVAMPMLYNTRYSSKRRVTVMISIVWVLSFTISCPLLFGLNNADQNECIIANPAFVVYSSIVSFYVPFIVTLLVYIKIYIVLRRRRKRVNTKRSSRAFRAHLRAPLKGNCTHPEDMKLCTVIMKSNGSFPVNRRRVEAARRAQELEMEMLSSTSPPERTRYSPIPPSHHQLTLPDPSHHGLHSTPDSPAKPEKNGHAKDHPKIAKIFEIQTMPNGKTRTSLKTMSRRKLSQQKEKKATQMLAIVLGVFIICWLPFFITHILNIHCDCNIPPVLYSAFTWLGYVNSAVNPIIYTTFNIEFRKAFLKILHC
Histaminergic H3, sequence (Q9Y5N1 whole entry): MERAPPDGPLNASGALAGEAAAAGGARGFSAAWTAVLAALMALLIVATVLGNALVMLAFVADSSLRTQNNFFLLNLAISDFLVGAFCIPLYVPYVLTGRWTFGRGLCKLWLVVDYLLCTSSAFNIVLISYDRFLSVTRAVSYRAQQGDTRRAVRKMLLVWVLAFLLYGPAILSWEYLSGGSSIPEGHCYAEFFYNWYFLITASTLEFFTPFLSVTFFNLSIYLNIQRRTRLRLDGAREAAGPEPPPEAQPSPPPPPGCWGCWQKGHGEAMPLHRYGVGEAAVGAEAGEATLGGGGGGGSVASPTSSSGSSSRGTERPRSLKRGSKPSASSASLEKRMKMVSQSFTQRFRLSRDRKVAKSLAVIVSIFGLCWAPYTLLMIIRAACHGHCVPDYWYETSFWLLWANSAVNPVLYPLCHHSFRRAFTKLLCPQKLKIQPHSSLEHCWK
Histaminergic H1, sequence (P35367 whole entry): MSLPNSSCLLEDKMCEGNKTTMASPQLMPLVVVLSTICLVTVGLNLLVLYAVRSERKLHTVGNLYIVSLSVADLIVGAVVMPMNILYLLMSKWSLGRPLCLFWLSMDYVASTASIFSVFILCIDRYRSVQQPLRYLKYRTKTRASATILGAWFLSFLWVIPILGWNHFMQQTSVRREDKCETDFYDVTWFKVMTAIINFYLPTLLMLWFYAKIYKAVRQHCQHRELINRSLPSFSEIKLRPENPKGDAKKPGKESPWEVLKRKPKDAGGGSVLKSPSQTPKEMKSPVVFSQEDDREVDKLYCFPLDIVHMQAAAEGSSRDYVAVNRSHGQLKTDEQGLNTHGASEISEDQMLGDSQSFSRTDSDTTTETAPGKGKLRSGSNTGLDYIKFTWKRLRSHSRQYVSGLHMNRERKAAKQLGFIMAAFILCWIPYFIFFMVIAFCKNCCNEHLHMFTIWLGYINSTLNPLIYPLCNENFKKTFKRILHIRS
Serotoninergic 5-HT2A, sequence (P28223 whole entry): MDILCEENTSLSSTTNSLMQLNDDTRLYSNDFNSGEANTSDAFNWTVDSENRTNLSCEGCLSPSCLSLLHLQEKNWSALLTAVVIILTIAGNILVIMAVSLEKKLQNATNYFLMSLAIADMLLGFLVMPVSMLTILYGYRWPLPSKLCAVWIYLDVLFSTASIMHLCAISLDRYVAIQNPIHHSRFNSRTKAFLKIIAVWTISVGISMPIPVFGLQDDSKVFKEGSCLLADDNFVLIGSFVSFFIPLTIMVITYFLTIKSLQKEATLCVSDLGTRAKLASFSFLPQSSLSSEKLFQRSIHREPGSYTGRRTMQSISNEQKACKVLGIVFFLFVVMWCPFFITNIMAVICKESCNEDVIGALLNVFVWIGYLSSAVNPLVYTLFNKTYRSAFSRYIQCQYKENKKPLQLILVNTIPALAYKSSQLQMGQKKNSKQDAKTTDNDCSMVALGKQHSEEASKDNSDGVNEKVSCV
Histaminergic H2, sequence (P25021 whole entry): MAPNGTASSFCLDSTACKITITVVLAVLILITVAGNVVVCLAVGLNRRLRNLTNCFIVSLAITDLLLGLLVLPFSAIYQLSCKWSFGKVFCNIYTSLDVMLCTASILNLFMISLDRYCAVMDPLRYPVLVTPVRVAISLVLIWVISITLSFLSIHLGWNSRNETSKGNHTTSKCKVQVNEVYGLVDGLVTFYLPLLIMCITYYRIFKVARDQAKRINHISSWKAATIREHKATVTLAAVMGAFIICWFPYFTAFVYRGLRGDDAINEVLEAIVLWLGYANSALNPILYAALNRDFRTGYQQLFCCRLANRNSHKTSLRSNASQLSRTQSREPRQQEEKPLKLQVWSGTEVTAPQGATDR

| SMILES | radio-labelled ligand displacement, Adrenergic α1A (Adrenergic α1A) | radio-labelled ligand displacement, Adrenergic α1B (Adrenergic α1B) | radio-labelled ligand displacement, Adrenergic α1D (Adrenergic α1D) | radio-labelled ligand displacement, Adrenergic α2A (Adrenergic α2A) | radio-labelled ligand displacement, Dopaminergic D1 (Dopaminergic D1) | radio-labelled ligand displacement, Dopaminergic D2L (Dopaminergic D2L) | radio-labelled ligand displacement, Dopaminergic D2S (Dopaminergic D2S) | radio-labelled ligand displacement, Dopaminergic D3 (Dopaminergic D3) | radio-labelled ligand displacement, Dopaminergic D4.2 (Dopaminergic D4.2) | radio-labelled ligand displacement, Histaminergic H1 (Histaminergic H1) | radio-labelled ligand displacement, Histaminergic H2 (Histaminergic H2) | radio-labelled ligand displacement, Histaminergic H3 (Histaminergic H3) | radio-labelled ligand displacement, Serotoninergic 5-HT1A (Serotoninergic 5-HT1A) | radio-labelled ligand displacement, Serotoninergic 5-HT1B (Serotoninergic 5-HT1B) | radio-labelled ligand displacement, Serotoninergic 5-HT2A (Serotoninergic 5-HT2A) | radio-labelled ligand displacement, Serotoninergic 5-HT2B (Serotoninergic 5-HT2B) | radio-labelled ligand displacement, Serotoninergic 5-HT2C (Serotoninergic 5-HT2C) | radio-labelled ligand displacement, Serotoninergic 5-HT6 (Serotoninergic 5-HT6) | radio-labelled ligand displacement, Serotoninergic 5-HT7 (Serotoninergic 5-HT7) | grade of the activity profile (poor / satisfactory / good) [1] |
| --- | --- | --- | --- | --- | --- | --- | --- | --- | --- | --- | --- | --- | --- | --- | --- | --- | --- | --- | --- | --- |
| Cc1cc2c3c(n(CCc4ccc(Cl)cc4)c2s1)C(C)CN(C)C3 (stereo not shown) [3.6(4)•HCl, 2,5,7-trimethyl-8-(4-chlorophenethyl)-4,5,6,7-tetrahydro-5H-thieno[3′,2′:4,5]pyrrolo[3,2-c]pyridine] | 89% | 91% | 89% | 93% | 56% | 45% | 72% | 63% | 54% | 95% | 63% | 8 | 29% | 41% | 97% | 78% | 96% | 99% | 99% | good |
| CN1CCc2c(c3cc(Cl)sc3n2CCCc2cccc(F)c2)C1 [3.12(6)•HCl, 5-methyl-8-[(3-fluorophenyl)propyl]-2-chloro-4,5,6,7-tetrahydro-5H-thieno[3′,2′:4,5]pyrrolo[3,2-c]pyridine] | 84% | 96% | 83% | 91% | 63% | 81% | 77% | 69% | 68% | 97% | 91% | −1 | 50% | 43% | 97% | 91% | 98% | 84% | 95% | good |
